We go through 3 compounds from BindingDB's records for doi:10.1021/jm990309x (University of New Mexico, 1999).

The experiment addresses Bile salt-activated lipase (Sus scrofa). Kind of experiment: Inhibition of the Pancreatic Cholesterol Esterase from porcine.

A word on the Ki: it is a measure of affinity in units of concentration, obtained from inhibition or displacement. With `O=c1oc(Cl)ccc1CCC1CCCCC1` [6-Chloro-3-(2-cyclohexyl-ethyl)-pyran-2-one], the Ki is 25 nM.

Turning to `O=c1oc(Cl)ccc1CCCC1CCCCC1` [6-Chloro-3-(3-cyclohexyl-propyl)-pyran-2-one], the Ki stood at 60 nM.

As to `O=c1oc(Cl)ccc1CC1CCCCC1` [6-Chloro-3-cyclohexylmethyl-pyran-2-one], the Ki was found to be 2200 nM.
